Measurements taken from patent EP2812315B1, “PYRROLIC DERIVATIVES, PROCESSES FOR PREPARING THE SAME AND THEIR USES AS A DRUG” (Universite Joseph Fourier, priority 2012, dated 2013).
Converted amounts (≈) assume the structure as drawn.

Legend:
Experiment in all cases: Other MIC determination, microdilution method (CLSI M07-A9) with modifications
Type in all cases: cell-based
[1] = tested on: Staphylococcus haemolyticus (CHUG-Shae6)
Method: (§1) The microdilution method recommended by the Clinical and Laboratory Standard Institute [M07-A9, Vol.32, N°2] was used with the following modifications.
(§2) Bacterial inocula were prepared in Mueller Hinton broth (MH2, BioMérieux, Marcy L'Etoile, France). They were dispensed in 96 well microtiter plates (10^6 CFU/ml of final inoculum, 192 µL per well).
(§3) To avoid cross-contaminations in microtiter plates, one row was left blank between each strain tested. Microplates were incubated for 18h at 37 °C in ambient air. Then MICs were read visually and, in case of visual reading difficulties, confirmed using a spectrophotometer at a wavelength of 630 nm (BioTek® EL808 Absorbance Microplate Reader). MICs corresponded to the minimum pyrrolic compound concentrations that allowed complete visual growth inhibition of bacteria. Drug-free cultures served as growth controls.
(§4) We used four Staphylococcus aureus strains. Two reference strains were provided by the French reference center for Staphylococcus spp. (Lyon, France), including one methicillin-susceptible (MSSA 476) and one methicillin-resistant (MRSA 252) S. aureus strains. The two remaining S. aureus strains were purchased from the CRBIP (Centre de Ressources Biologiques de l'Institut Pasteur): a vancomycin-intermediate strain (ATCC 106414) and a S. aureus strain (SA-1199B) resistant to fluoroquinolones due to overexpression of the NorA multidrug efflux pump. Coagulase-negative Staphylococcus strains included three reference strains purchased from CRBIP: a methicillin-susceptible S. epidermidis strain (ATCC 12228), a methicillin-resistant S. epidermidis strain (ATCC 49461), and a methicillin-susceptible S. sciuri strain (ATCC 29061). We also used 37 clinical strains belonging to the following coagulase-negative Staphylococcus species: S. arlettae (two strains), S. capitis (nine strains), S. epidermidis (one strain), S. haemolyticus (six strains), S. hominis (eight strains), S. lugdunensis (one strain), S. massiliensis (one strain), S. pettenkoferi (two strains), S. saprophyticus (two strains), S. simulans (one strain), and S. warneri (four strains) . Identification of the clinical strains was first obtained using VITEK® 2 System (Biomérieux) and confirmed by amplification and sequencing of the tuf gene (Reference: Bergeron, M., O. Dauwalder, M. Gouy, A.-M. Freydiere, M. Bes, H. Meugnier, Y. Benito, J. Etienne, G. Lina, F. Vandenesch, and S. Boisset. Species identification of staphylococci by amplification and sequencing of the tuf gene compared to the gap gene and by matrix-assisted laser desorption ionization time-of-flight mass spectrometry, Eur. J. Clin. Microbial. Infect. Dis. 2011, 30, 343-354).
(§5) The activity of the pyrrolic compounds 3c and 3i was further tested against 32 clinical strains belonging to 11 coagulase-negative Staphylococcus species.

[2] = tested on: Staphylococcus capitis (CHUG-Scapi10); conditions: clinical strain
Method: as §1, §2, §3, §4, §5

[3] = tested on: Staphylococcus warneri (CHUG-Swar2); conditions: clinical strain
Method: as §1, §2, §3, §4, §5

[4] = tested on: Staphylococcus capitis (CHUG-Scapi6); conditions: clinical strain
Method: as §1, §2, §3, §4, §5

[5] = tested on: Staphylococcus arlettae (CHUG-Sarl2, meti-R)
Method: as §1, §2, §3, §4, §5

[6] = tested on: Staphylococcus haemolyticus (CHUG-Shae4)
Method: as §1, §2, §3, §4, §5

[7] = tested on: Staphylococcus hominis (CHUG-Shom3); conditions: clinical strain
Method: as §1, §2, §3, §4, §5

[8] = tested on: Staphylococcus epidermidis (CHUG-Sepi1); conditions: clinical strain
Method: as §1, §2, §3, §4, §5

[9] = tested on: Staphylococcus capitis (CHUG-Scapi9); conditions: clinical strain
Method: as §1, §2, §3, §4, §5

[10] = tested on: Staphylococcus capitis (CHUG-Scapi3); conditions: clinical strain
Method: as §1, §2, §3, §4, §5

[11] = tested on: Staphylococcus saprophyticus (CHUG-Ssap1); conditions: clinical strain
Method: as §1, §2, §3, §4, §5

[12] = tested on: Staphylococcus haemolyticus (CHUG-Shae3)
Method: as §1, §2, §3, §4, §5

[13] = tested on: Staphylococcus warneri (CHUG-Swar3); conditions: clinical strain
Method: as §1, §2, §3, §4, §5

[14] = tested on: Staphylococcus warneri (CHUG-Swar4); conditions: clinical strain
Method: as §1, §2, §3, §4, §5

[15] = tested on: Staphylococcus pettenkoferi (CHUG-Spet2); conditions: clinical strain
Method: as §1, §2, §3, §4, §5

[16] = tested on: Staphylococcus capitis (CHUG-Scapi5); conditions: clinical strain
Method: as §1, §2, §3, §4, §5

[17] = tested on: Staphylococcus hominis (CHUG-Shom8); conditions: clinical strain
Method: as §1, §2, §3, §4, §5

[18] = tested on: Staphylococcus simulans (CHUG-Ssim1); conditions: clinical strain
Method: as §1, §2, §3, §4, §5

[19] = tested on: Staphylococcus saprophyticus (CHUG-Ssap2); conditions: clinical strain
Method: as §1, §2, §3, §4, §5

[20] = tested on: Staphylococcus lugdunensis (CHUG-Slug1); conditions: clinical strain
Method: as §1, §2, §3, §4, §5

[21] = tested on: Staphylococcus hominis (CHUG-Shom6); conditions: clinical strain
Method: as §1, §2, §3, §4, §5

[22] = tested on: Staphylococcus haemolyticus (CHUG-Shae2)
Method: as §1, §2, §3, §4, §5

[23] = tested on: Staphylococcus capitis (CHUG-Scapi4); conditions: clinical strain
Method: as §1, §2, §3, §4, §5

**Q.** Which results are given for `CC(=O)c1c(C)[nH]c(C(c2[nH]c(C)c(C(C)=O)c2C)c2csc3ccccc23)c1C` [3i]?
**A.** MIC [1]: 4 mg/L (≈ 9.56 µM); MIC [2]: 2 mg/L (≈ 4.78 µM); MIC [3]: 1 mg/L (≈ 2.39 µM); MIC [4]: 1 mg/L (≈ 2.39 µM); MIC [5]: 16 mg/L (≈ 38.2 µM); MIC [6]: 4 mg/L (≈ 9.56 µM); MIC [7]: > 32 mg/L; MIC [8]: > 32 mg/L; MIC [9]: 2 mg/L (≈ 4.78 µM); MIC [10]: 1 mg/L (≈ 2.39 µM); MIC [11]: 8 mg/L (≈ 19.1 µM); MIC [12]: 4 mg/L (≈ 9.56 µM); MIC [13]: 1 mg/L (≈ 2.39 µM); MIC [14]: 4 mg/L (≈ 9.56 µM); MIC [15]: > 16 mg/L; MIC [16]: 2 mg/L (≈ 4.78 µM); MIC [17]: > 32 mg/L; MIC [18]: > 32 mg/L; MIC [19]: 8 mg/L (≈ 19.1 µM); MIC [20]: > 16 mg/L; MIC [21]: > 32 mg/L; MIC [22]: 8 mg/L (≈ 19.1 µM); MIC [23]: 1 mg/L (≈ 2.39 µM)

**Q.** What does the source list for `CC(=O)c1c(C)[nH]c(C(c2ccc(Cl)cc2)c2[nH]c(C)c(C(C)=O)c2C)c1C` [3c]?
**A.** MIC [1]: 16 mg/L (≈ 40.3 µM); MIC [2]: 8 mg/L (≈ 20.2 µM); MIC [3]: 8 mg/L (≈ 20.2 µM); MIC [4]: 8 mg/L (≈ 20.2 µM); MIC [5]: > 32 mg/L; MIC [6]: 16 mg/L (≈ 40.3 µM); MIC [7]: > 32 mg/L; MIC [8]: 8 mg/L (≈ 20.2 µM); MIC [9]: 8 mg/L (≈ 20.2 µM); MIC [10]: 8 mg/L (≈ 20.2 µM); MIC [11]: > 32 mg/L; MIC [12]: 16 mg/L (≈ 40.3 µM); MIC [13]: 8 mg/L (≈ 20.2 µM); MIC [14]: 16 mg/L (≈ 40.3 µM); MIC [15]: > 32 mg/L; MIC [16]: 8 mg/L (≈ 20.2 µM); MIC [17]: > 32 mg/L; MIC [18]: > 32 mg/L; MIC [19]: > 32 mg/L; MIC [20]: > 32 mg/L; MIC [21]: > 32 mg/L; MIC [22]: > 32 mg/L; MIC [23]: 4 mg/L (≈ 10.1 µM)
